In patent publication US7074769B2, “Oligonucleotide inhibitors of bcl-xL” (The Trustees of Columbia University in the City of New York, priority 1998, dated 2006):

Tested on: bcl-xL transfected LNCaP cells
Assay: Drug treatment of bcl-xL transfected and parental LNCaP cells
Assay type: cell-based, human
Settings: for apoptosis induction: parental LNCaP cells or neomycin-expressing control-transfected LNCaP cells; for concentration up to which bcl-xL overexpressing LNCaP clones were resistant: treatment for 24 h
Method: LNCaP cells transfected with the neomycin-selectable pSFFV/bcl-xL plasmid or with a control, neomycin-resistant expression vector pSFFV. Aliquots containing 10 μg of plasmid and 5 μg of lipofectin reagent (Life technologies, Inc., Gaithersburg, Md.) in serum-free OPTI-MEM (Life Technologies, Inc.) were added to cultured cells. The transfection media was replaced 4 h later with RPMI-10% FBS medium. Individual colonies were selected from these plates after approximately 3–4 weeks of routine maintenance in RPMI-10% FBS containing 0.6 mg/ml G418 sulfate (Geneticin, Life Technologies, Inc.). The bcl-xL-transformed LNCaP cells were cultured in RPMI-10% FBS, supplemented with 0.3 mg/ml G418 sulfate in 5% CO2 atmosphere.
Two clones of LNCaP cells overexpressing bcl-xL protein (1072-4 and 1072-5) have been obtained after transfection of wild type LNCaP cells with the plasmid vector pSFFV/bcl-xL and lipofectin. Also a mock transfectant clone of LNCaP cells carrying neo® resistance gene (1072-3) was used for the control experiments. […] Western blot analysis for bcl-xL protein was performed as described above. […] For the Northern blot analysis, the total RNA was isolated from the cells using TRIZOL reagent (GIBCO BRL), and 20 μg aliquotes were separated in RNA-formaldehyde gel, blotted onto nylon membranes (Schleicher & Schull), UV-linked and prehybridized for two hours at 42° C. in the standard hybridization solution. Then the blot was hybridized overnight with the PCR-amplified fragment of human bcl-xL cDNA at 42° C. Dcl-xL coding fragment was amplified from pSFFV/bcl-xL plasmid using bcl-x specific primers. The primer sequences were: bcl-x-upstream, 5′-[…]-3′ (SEQ ID NO:36); and bcl-x-downstream, 5′-[…]-3′ (SEQ ID NO:37). Twenty five cycles of amplification were performed in DNA Thermal Cycler (Perkin-Elmer, Norwalk, Conn.) at 94° C. (30 sec), 55° C. (30 sec), and 72° C. (30 sec). The PCR products were analysed on a 1.2% agarose gel. The resultant fragment was labeled by random primer method to the specific activity 10^7 cpm/ng of the probe and used for the hybridization. After washings blots were autoradiographed for 24h at −80° C. Blots were stripped of radioactivity and reprobed with a ^32P-labeled G3PDH probe to confirm the equal loading.
Clonal derivatives of bcl-xL transfected LNCaP cells that were overexpressing high amounts of bcl-xL protein were resistant to taxol (up to 100 nM) and mitoxantrone (up to 4 μM) treatment for 24 h. […] This finding strongly supports the hypothesis that bcl-xL gene product is a factor in the development of chemotherapy resistance in hormone-refractory prostate cancer.

## CC(=O)O[C@H]1C(=O)[C@@]2(C)[C@H]([C@H](OC(=O)c3ccccc3)[C@]3(O)C[C@H](OC(=O)[C@H](O)[C@@H](NC(=O)c4ccccc4)c4ccccc4)C(C)=C1C3(C)C)[C@]1(OC(C)=O)CO[C@@H]1C[C@@H]2O [taxol]
  apoptosis induction: induce apoptosis
  concentration up to which bcl-xL overexpressing LNCaP clones were resistant: up to 100 nM

## O=C1c2c(O)ccc(O)c2C(=O)c2c(NCCNCCO)ccc(NCCNCCO)c21 [mitoxantrone]
  apoptosis induction: induce apoptosis
  concentration up to which bcl-xL overexpressing LNCaP clones were resistant: up to 4 μM
